The target in assay [1] is T1, kappa opioid receptor (KOR) (Homo sapiens, UniProt P41145).
T1 construct: host or cells: U2OS (Tango OPRK1-bla U2OS)
The assay is described as follows: OPRKappa 1 Tango B-Arrestin Assay, antagonist mode (Tango OPRK1-bla U2OS cells, U50488 EC80 challenge). Type of assay: cell-based. Conditions: for Selectivity (MOR/KOR): Kappa selectivity, MOR IC50 / KOR IC50; for IC50: antagonist mode, Tango OPRK1-bla U2OS cells, 6 nM U50488 challenge. An outline of the steps: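 Tango OPRK1-bla U2OS cells, β-arrestin recruitment read as β-lactamase FRET (CCF4-AM, 460/590 nm emission). Compounds, 10-point 1:3 series from nominal 10 µM in quadruplicate, preincubated 30 min at 37 °C, then challenged with U50488 at 6 nM final (EC80) for 4 h; percent inhibition from median ratio.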

In assay [2] the target is T2, mu opioid receptor (MOR) (Homo sapiens, UniProt P35372).
T2 construct: host or cells: U2OS (Discover X OPRMu1-U2OS, PathHunter)
The experiment in a line: OPRMu1 Discover X β-arrestin Assay, antagonist mode (U2OS cells, DAMGO EC80 challenge). Type of assay: cell-based. In short, it runs like this: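 PathHunter U2OS cells with β-gal fragment-complementation readout for β-arrestin recruitment to OPRMu1. Cells were preincubated with compound (10-point, 1:3 series from nominal 10 micromolar) for 30 min at 37 °C, then challenged with 303 nM DAMGO (EC80) for 3 h. Luminescence gave percent inhibition.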

From patent publication US20260115185A1, “QUINOLINE DERIVATIVES WHICH ACT AS KAPPA-OPIOID RECEPTOR ANTAGONISTS” (The Scripps Research Institute, priority 2023, published 2026) come the findings set out here.

A word on the IC50: it is the concentration that gives 50% inhibition.

T1 sequence (P41145 whole entry): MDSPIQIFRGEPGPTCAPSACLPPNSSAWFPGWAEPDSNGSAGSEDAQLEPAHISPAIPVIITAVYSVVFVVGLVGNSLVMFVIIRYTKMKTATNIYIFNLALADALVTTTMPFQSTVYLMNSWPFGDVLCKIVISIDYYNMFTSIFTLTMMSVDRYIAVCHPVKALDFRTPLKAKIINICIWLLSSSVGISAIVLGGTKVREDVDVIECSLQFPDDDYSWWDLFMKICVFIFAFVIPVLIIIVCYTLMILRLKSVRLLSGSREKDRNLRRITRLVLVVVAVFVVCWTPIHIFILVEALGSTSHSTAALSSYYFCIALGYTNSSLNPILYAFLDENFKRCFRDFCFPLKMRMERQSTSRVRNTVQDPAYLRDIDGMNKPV
T2 sequence (P35372 whole entry): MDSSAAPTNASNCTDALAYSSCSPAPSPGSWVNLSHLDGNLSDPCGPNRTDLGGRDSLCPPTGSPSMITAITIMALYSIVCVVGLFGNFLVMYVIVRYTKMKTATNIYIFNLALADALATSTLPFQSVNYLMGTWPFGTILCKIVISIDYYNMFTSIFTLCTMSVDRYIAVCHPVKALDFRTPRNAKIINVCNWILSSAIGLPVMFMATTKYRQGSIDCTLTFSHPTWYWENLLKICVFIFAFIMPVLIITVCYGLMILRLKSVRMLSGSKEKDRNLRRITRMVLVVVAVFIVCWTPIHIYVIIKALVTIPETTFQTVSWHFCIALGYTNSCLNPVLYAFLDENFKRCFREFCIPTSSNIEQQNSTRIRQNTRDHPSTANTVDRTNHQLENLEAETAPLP

Consider `CCc1cc(F)c2nc(N3CCN(C4CCOCC4)C[C@@H]3C)c(-c3nc(C)no3)c(C)c2c1` [Compound 27, (S)-5-(6-ethyl-8-fluoro-4-methyl-2-(2-methyl-4-(tetrahydro-2H-pyran-4-yl)piperazin-1-yl)quinolin-3-yl)-3-methyl-1,2,4-oxadiazole], for which, in assay [1], the “Selectivity (MOR/KOR)” value was “++ (between 10- and 100-fold selectivity)”; the IC50 was at least 100 nM. For the same compound, in assay [2], the concentration for half-maximal inhibition (IC50) is over 1000 nM.

Consider `CCc1cc(F)c2nc(N3CCN(C(=O)[C@@H](C)N4CC[C@@H](O)C4)C[C@H]3C)c(-c3nc(C)no3)c(C)c2c1` [Compound 146], for which, in assay [1], the “Selectivity (MOR/KOR)” value was “+++ (between 100- to 1000-fold selective)” and the concentration for half-maximal inhibition (IC50) is 10 to 100 nM. In assay [2], this compound had a half-inhibitory concentration (IC50) of over 1000 nM.

As for `CCc1cc(F)c2nc(N3CC[C@H](N[C@@H]4CCOC4)[C@H](C)C3)c(-c3ccn(C)n3)c(C)c2c1` [Compound 107], in assay [1], the “Selectivity (MOR/KOR)” value is “+++ (between 100- to 1000-fold selective)”. The figures for the IC50 in assay [1] and in assay [2] were 10 to 100 nM and over 1000 nM, respectively.

For `CCc1cc(F)c2nc(N3CCN(C(=O)CN(CC)CC)C[C@H]3C)c(-c3ccn(C)n3)c(C)c2c1` [Compound 176], in assay [1], the “Selectivity (MOR/KOR)” value is “+++ (between 100- to 1000-fold selective)” and the IC50 lay in the range of 1 to 10 nM. In assay [2], the IC50 was over 1000 nM.

For the compound `CCc1cc(F)c2nc(N3CCN(C(=O)CCN(C)C)C[C@H]3C)c(-c3nc(C)no3)c(C)c2c1` [Compound 43], in assay [1], the “Selectivity (MOR/KOR)” value is “++ (between 10- and 100-fold selectivity)”; the concentration for half-maximal inhibition (IC50) fell in the range of 10 to 100 nM. The same compound gave a concentration for half-maximal inhibition (IC50) in assay [2] of over 1000 nM.

Regarding `CCc1cc(F)c2nc(N3CC[C@@H](N[C@@H]4CCCOC4)C[C@H]3C)c(-c3cc(C)no3)c(C)c2c1` [Compound 144], in assay [1], the “Selectivity (MOR/KOR)” value is “+++ (between 100- to 1000-fold selective)” and the half-inhibitory concentration (IC50) is under 1 nM. For the same compound, the 50% inhibitory concentration (IC50) in assay [2] is 100 to 1000 nM.

As for `CCc1cc(F)c2nc(N3CC[C@@H](N[C@@H]4CCOC4)[C@H](C)C3)c(-c3ccn(C)n3)c(C)c2c1` [Compound 110], in assay [1], the “Selectivity (MOR/KOR)” value is “+++ (between 100- to 1000-fold selective)” and the concentration for half-maximal inhibition (IC50) was in the range of 1 to 10 nM. Besides, the IC50 in assay [2] is over 1000 nM.

Consider `CCc1cc(-c2cc(C)nn2C)c2nc(N3CCC(N[C@H]4CCOC4)CC3)c(-c3ccn(C)n3)c(C)c2c1` [Compound 94], for which the “Selectivity (MOR/KOR)” value in assay [1] is “+++ (between 100- to 1000-fold selective)”. For the same compound, the IC50 was under 1 nM in assay [1] and 10 to 100 nM in assay [2].

As to `CCc1cc(F)c2nc(N3CCN(C(=O)[C@@H]4COCCN4C)C[C@H]3C)c(-c3nc(C)no3)c(C)c2c1` [Compound 185], the “Selectivity (MOR/KOR)” value in assay [1] is recorded as “+++ (between 100- to 1000-fold selective)”. Moreover, the IC50 in assay [1] is 10 to 100 nM; in assay [2] it was over 1000 nM.

With `CCc1cc(-c2ccnn2C)c2nc(N3CCC(N[C@@H]4CCOC4)CC3)c(-c3ccn(C)n3)c(C)c2c1` [Compound 87], the “Selectivity (MOR/KOR)” value in assay [1] was “+++ (between 100- to 1000-fold selective)”. The figures for the IC50 in assay [1] and in assay [2] were under 1 nM and 100 to 1000 nM, respectively.

Take `CCc1cc(F)c2nc(N3CCN(CC4(F)CCOCC4)C[C@H]3C)c(-c3nc(C)no3)c(C)c2c1` [Compound 207, (R)-5-(6-ethyl-8-fluoro-2-(4-((4-fluorotetrahydro-2H-pyran-4-yl)methyl)-2-methylpiperazin-1-yl)-4-methylquinolin-3-yl)-3-methyl-1,2,4-oxadiazole]: in assay [1], the “Selectivity (MOR/KOR)” value is on record as “++++ (more than 1000-fold selectivity over MOR)” and the IC50 fell in the range of 1 to 10 nM. Further, the IC50 in assay [2] is over 1000 nM.

Regarding `CCc1cc(F)c2nc(N3CCN(C(=O)CCN4CCCC4)C[C@H]3C)c(-c3nc(C)no3)c(C)c2c1` [Compound 190], in assay [1], the “Selectivity (MOR/KOR)” value was “++ (between 10- and 100-fold selectivity)”; the IC50 fell in the range of 1 to 10 nM. In assay [2], this compound displayed an IC50 of 100 to 1000 nM.

As for `CCc1cc(-c2cc[nH]n2)c2nc(N3CCNC[C@H]3C)c(-c3nc(C)no3)c(C)c2c1` [Compound 105], in assay [1], the “Selectivity (MOR/KOR)” value was “++ (between 10- and 100-fold selectivity)”; the IC50 was in the range of 10 to 100 nM. The compound also displayed an IC50 in assay [2] of over 1000 nM.

With `CCc1cc(F)c2nc(N3CCN([C@@H]4CCOC4)C[C@H]3C)c(-c3nc(C)no3)c(C)c2c1` [Compound 31], in assay [1], the “Selectivity (MOR/KOR)” value is “++ (between 10- and 100-fold selectivity)”; the half-inhibitory concentration (IC50) is at least 100 nM. Moreover, the 50% inhibitory concentration (IC50) in assay [2] is over 1000 nM.

For `CCc1cc(-c2cc[nH]n2)c2nc(N3CCNC[C@H]3C)c(-c3ccn(C)n3)c(C)c2c1` [Compound 12, (R)-6-ethyl-4-methyl-3-(1-methyl-1H-pyrazol-3-yl)-2-(2-methylpiperazin-1-yl)-8-(1H-pyrazol-3-yl)quinoline], in assay [1], the “Selectivity (MOR/KOR)” value is recorded as “+ (less than 10-fold selectivity)” and the IC50 was at least 100 nM. In assay [2], this compound gave an IC50 of over 1000 nM.

Consider `CCc1cc(-c2ccnn2C)c2nc(N3CC[C@H](NC4CCOCC4)[C@H](F)C3)c(-c3ccn(C)n3)c(C)c2c1` [Compound 1, (3R,4S)-1-(6-ethyl-4-methyl-3-(1-methyl-1H-pyrazol-3-yl)-8-(1-methyl-1H-pyrazol-5-yl)quinolin-2-yl)-3-fluoro-N-(tetrahydro-2H-pyran-4-yl)piperidin-4-amine], for which, in assay [1], the “Selectivity (MOR/KOR)” value is “+++ (between 100- to 1000-fold selective)” and the concentration for half-maximal inhibition (IC50) fell in the range of 1 to 10 nM. The compound also had a concentration for half-maximal inhibition (IC50) in assay [2] of over 1000 nM.

Take `CCc1cc(F)c2nc(N3CCN(C4CC5(COC5)C4)C[C@H]3C)c(-c3nc(C)no3)c(C)c2c1` [Compound 41]: in assay [1], the “Selectivity (MOR/KOR)” value is listed as “+++ (between 100- to 1000-fold selective)” and the 50% inhibitory concentration (IC50) is 10 to 100 nM. Also, the 50% inhibitory concentration (IC50) in assay [2] is over 1000 nM.

For the compound `CCc1cc(F)c2nc(N3CCN(C(=O)C(C)(C)N4CCCC4)C[C@H]3C)c(-c3ccn(C)n3)c(C)c2c1` [Compound 169], in assay [1], the “Selectivity (MOR/KOR)” value is “++ (between 10- and 100-fold selectivity)”; the concentration for half-maximal inhibition (IC50) was 1 to 10 nM. Besides, the IC50 in assay [2] is over 1000 nM.
